Like-named read-outs stand apart in the source and are kept apart here.
Format: physicochemical
[1] = Table 3, accelerated for 0 month, hydroxysafflor yellow A per CN102675379A purity 89.9%, sodium salt purity 98.6%
[2] = Table 3, accelerated for 1 month, hydroxysafflor yellow A per CN102675379A purity 89.9%, sodium salt purity 98.6%
[3] = Table 3, accelerated for 2 months, hydroxysafflor yellow A per CN102675379A purity 89.9%, sodium salt purity 98.6%
[4] = Table 3, accelerated for 3 months, hydroxysafflor yellow A per CN102675379A purity 89.9%, sodium salt purity 98.6%
[5] = Table 4, accelerated for 0 month, hydroxysafflor yellow A by acidizing purity 99.2%, sodium salt purity 99.2%
[6] = Table 4, accelerated for 2 months, hydroxysafflor yellow A by acidizing purity 99.2%, sodium salt purity 99.2%
[7] = Table 4, accelerated for 3 months, hydroxysafflor yellow A by acidizing purity 99.2%, sodium salt purity 99.2%

Content (counting Hydroxyl A) [1]: 89.8% | Total impurity [1]: 10.1% | Content (counting Hydroxyl A) [2]: 84.7% | Total impurity [2]: 14.9% | Content (counting Hydroxyl A) [3]: 79.2% | Total impurity [3]: 20.8% | Content (counting Hydroxyl A) [4]: 71.2% | Total impurity [4]: 28.6% | Content (counting Hydroxyl A) [5]: 99.1% | Total impurity [5]: 0.8% | Total impurity (Table 4, accelerated for 1 month, hydroxysafflor yellow A by acidizing purity 99.2%, sodium salt purity 99.2%): 5.9% | Content (counting Hydroxyl A) [6]: 89.2% | Total impurity [6]: 10.7% | Content (counting Hydroxyl A) [7]: 81.3% | Total impurity [7]: 18.6%
Compound: O=C(/C=C/c1ccc(O)cc1)C1=C(O)C(O)(C2OC(CO)C(O)C(O)C2O)C(O)=C(C2OC(CO)C(O)C(O)C2O)C1=O (stereo not drawn) [Hydroxysafflor yellow A, hydroxysafflor yellow A]

From patent US9243019B2 (priority 2013, dated 2016)
